The data set relates to CCRIS mutagenicity, Ames/micronucleus/aberration tests. As to the kind of experiment: CCRIS mutagenicity studies.
Where [1] appears, read: Test System: AMES SALMONELLA TYPHIMURIUM, Strain/Indicator: TA98, Metabolic Activation: NONE, Method: PREINCUBATION
[2] abbreviates: Test System: AMES SALMONELLA TYPHIMURIUM, Strain/Indicator: TA98, Metabolic Activation: NONE, Method: STANDARD PLATE.
Where [3] appears, read: Test System: AMES SALMONELLA TYPHIMURIUM, Strain/Indicator: TA100, Metabolic Activation: NONE, Method: STANDARD PLATE.
Setting [4] is: Test System: AMES SALMONELLA TYPHIMURIUM, Strain/Indicator: TA100, Metabolic Activation: NONE, Method: PREINCUBATION
Where [5] appears, read: Test System: AMES SALMONELLA TYPHIMURIUM, Strain/Indicator: TA98, Metabolic Activation: HAMSTER, LIVER, S-9, AROCLOR 1254 (30%), Method: PREINCUBATION
Setting [6] is: Test System: AMES SALMONELLA TYPHIMURIUM, Strain/Indicator: TA98, Metabolic Activation: RAT, LIVER, S-9, AROCLOR 1254 (30%), Method: PREINCUBATION
Where [7] appears, read: Test System: AMES SALMONELLA TYPHIMURIUM, Strain/Indicator: TA100, Metabolic Activation: HAMSTER, LIVER, S-9, AROCLOR 1254 (30%), Method: PREINCUBATION
[8] abbreviates: Test System: AMES SALMONELLA TYPHIMURIUM, Strain/Indicator: TA100, Metabolic Activation: RAT, LIVER, S-9, AROCLOR 1254 (30%), Method: PREINCUBATION

Active and inactive are the calls of the source. The rule behind the calls is not given here.

Turning to `ClCc1ccc2ccc3cccc4ccc1c2c34`, the mutagenic call is, setting by setting: (Test System: AMES SALMONELLA TYPHIMURIUM, Strain/Indicator: TA98, Metabolic Activation: NONE) “active; positive”; under setting [1], “active; positive”; under setting [2], “active; positive”; under setting [3], “active; positive”.
Consider `O=CNc1nc(-c2ccc([N+](=O)[O-])cc2)cs1`, for which the mutagenic call reads like this: (Test System: AMES SALMONELLA TYPHIMURIUM, Strain/Indicator: TA98, Metabolic Activation: RAT, LIVER, S-9, KC500 OR PHENOBARBITAL, Method: LIQUID SUSPENSION) “active; positive”; (Test System: AMES SALMONELLA TYPHIMURIUM, Strain/Indicator: TA100, Metabolic Activation: RAT, LIVER, S-9, KC500 OR PHENOBARBITAL, Method: LIQUID SUSPENSION) “active; positive”.
In the case of `[N-]=[N+]=Nc1ccc2c(Nc3ccc(NS(=O)(=O)CCCN)cc3)c3cc(N=[N+]=[N-])ccc3nc2c1`, the mutagenic call (Test System: AMES SALMONELLA TYPHIMURIUM, Strain/Indicator: TA1537, Metabolic Activation: NONE, Method: STANDARD PLATE) was “active; positive”.
`COc1cccc(C(=O)CBr)c1`: the mutagenic call is “inactive; negative” under setting [1]; “inactive; negative” (Test System: AMES SALMONELLA TYPHIMURIUM, Strain/Indicator: TA98, Metabolic Activation: RAT, LIVER, S-9, PCB, Method: PREINCUBATION); “inactive; negative” under setting [4]; “inactive; negative” (Test System: AMES SALMONELLA TYPHIMURIUM, Strain/Indicator: TA100, Metabolic Activation: RAT, LIVER, S-9, PCB, Method: PREINCUBATION); “inactive; negative” (Test System: E. COLI, Strain/Indicator: WP2 UVRA, Metabolic Activation: NONE, Method: PREINCUBATION).
Consider `N#C/C=C/C#N`, for which the mutagenic call runs as follows: (End Point: IN VITRO CHROMOSOMAL ABERRATIONS, Test System: CHO-LB CELLS, Metabolic Activation: NONE) “active; positive”; (End Point: IN VITRO CHROMOSOMAL ABERRATIONS, Test System: CHO-LB CELLS, Metabolic Activation: RAT, LIVER, S-9, AROCLOR 1254) “inactive; negative”; (Test System: AMES SALMONELLA TYPHIMURIUM, Strain/Indicator: TA97, Metabolic Activation: HAMSTER, LIVER, S-9, AROCLOR 1254 (10%), Method: PREINCUBATION) “inactive; negative”; (Test System: AMES SALMONELLA TYPHIMURIUM, Strain/Indicator: TA97, Metabolic Activation: HAMSTER, LIVER, S-9, AROCLOR 1254 (30%), Method: PREINCUBATION) “inactive; negative”; (Test System: AMES SALMONELLA TYPHIMURIUM, Strain/Indicator: TA97, Metabolic Activation: NONE, Method: PREINCUBATION) “inactive; negative”; (Test System: AMES SALMONELLA TYPHIMURIUM, Strain/Indicator: TA97, Metabolic Activation: RAT, LIVER, S-9, AROCLOR 1254 (10 OR 30%), Method: PREINCUBATION) “inactive; negative”. Besides, the mutagenic call was “inactive; negative” (Test System: AMES SALMONELLA TYPHIMURIUM, Strain/Indicator: TA98, Metabolic Activation: HAMSTER, LIVER, S-9, AROCLOR 1254 (10%), Method: PREINCUBATION); “inactive; negative” under setting [5]; “inactive; negative” under setting [1]; “inactive; negative” (Test System: AMES SALMONELLA TYPHIMURIUM, Strain/Indicator: TA98, Metabolic Activation: RAT, LIVER, S-9, AROCLOR 1254 (10%), Method: PREINCUBATION); “inactive; negative” under setting [6]; “inactive; negative” (Test System: AMES SALMONELLA TYPHIMURIUM, Strain/Indicator: TA98, Metabolic Activation: RAT, LIVER, S-9, FUMARONITRILE (AUTOINDUCTION), Method: PREINCUBATION). For the same molecule, the mutagenic call is “inactive; negative” (Test System: AMES SALMONELLA TYPHIMURIUM, Strain/Indicator: TA98, Metabolic Activation: RAT, LIVER, S-9, PHENOBARBITAL, Method: PREINCUBATION); “inactive; negative” (Test System: AMES SALMONELLA TYPHIMURIUM, Strain/Indicator: TA100, Metabolic Activation: HAMSTER, LIVER, S-9, AROCLOR 1254 (10%), Method: PREINCUBATION); “inactive; negative” under setting [7]; “inactive; negative” under setting [4]; “inactive; negative” (Test System: AMES SALMONELLA TYPHIMURIUM, Strain/Indicator: TA100, Metabolic Activation: RAT, LIVER, S-9, AROCLOR 1254 (10%), Method: PREINCUBATION); “inactive; negative” under setting [8]. Also, the mutagenic call was “inactive; negative” (Test System: AMES SALMONELLA TYPHIMURIUM, Strain/Indicator: TA100, Metabolic Activation: RAT, LIVER, S-9, FUMARONITRILE (AUTOINDUCTION), Method: PREINCUBATION); “inactive; negative” (Test System: AMES SALMONELLA TYPHIMURIUM, Strain/Indicator: TA100, Metabolic Activation: RAT, LIVER, S-9, PHENOBARBITAL, Method: PREINCUBATION); “inactive; negative” (Test System: AMES SALMONELLA TYPHIMURIUM, Strain/Indicator: TA1535, Metabolic Activation: HAMSTER, LIVER, S-9, AROCLOR 1254 (10%), Method: PREINCUBATION); “inactive; negative” (Test System: AMES SALMONELLA TYPHIMURIUM, Strain/Indicator: TA1535, Metabolic Activation: HAMSTER, LIVER, S-9, AROCLOR 1254 (30%), Method: PREINCUBATION); “inactive; negative” (Test System: AMES SALMONELLA TYPHIMURIUM, Strain/Indicator: TA1535, Metabolic Activation: NONE, Method: PREINCUBATION); “inactive; negative” (Test System: AMES SALMONELLA TYPHIMURIUM, Strain/Indicator: TA1535, Metabolic Activation: RAT, LIVER, S-9, AROCLOR 1254 (10 OR 30%), Method: PREINCUBATION).
`COc1ccc([N+](=O)[O-])c2c(NCCCN(C)C)c3ccccc3nc12`: the mutagenic call is “active; positive” under setting [2] and “inactive; negative” under setting [3].
Turning to `Cc1ccccc1N=Nc1c(O)ccc2ccccc12`, the mutagenic call reads like this: under setting [5], “inactive; negative”; under setting [1], “inactive; negative”; under setting [6], “inactive; negative”; under setting [7], “active; positive”; under setting [4], “inactive; negative”; under setting [8], “inactive; negative”.

These data come from PubChem BioAssay AID1259407 (Chemical Carcinogenesis Research Information System (CCRIS), 2018).
